From PubChem BioAssay AID1963868 (Molecular Pharmacology Branch, DTP, NCI, 2024)
pIC50: −log10 of the molar value.

System: KRAS PDC tumor spheroids (HUVEC+MSC), viability
Experiment: Anticancer human tumor 254851-301-R-J1-PDC patient-derived colon carcinoma cell line growth inhibition [KRAS2]
Conditions: for pIC50: curve of first compound; for viability, T/C: stronger effect = lower value
In short: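 KRAS-mutant tumor cells were grown as spheroids with HUVEC endothelial cells and human MSCs as stroma. Targeted agents were tested alone and with KRAS pathway inhibitors. Doses started at or near clinical Cmax, or 10 microM, descending half-log.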

[1] = second compound 0.1 µM, first compound 0.0316 µM
[2] = second compound 0.1 µM, first compound 0.1 µM
[3] = second compound 0.1 µM, first compound 0.316 µM
[4] = second compound 0.1 µM, first compound 1 µM
[5] = second compound 0.1 µM, first compound 3.16 µM
[6] = second compound 0.1 µM, first compound 10 µM
[7] = second compound 0.316 µM, first compound 0.0316 µM
[8] = second compound 0.316 µM, first compound 0.1 µM
[9] = second compound 0.316 µM, first compound 0.316 µM
[10] = second compound 0.316 µM, first compound 1 µM
[11] = second compound 0.316 µM, first compound 3.16 µM
[12] = second compound 0.316 µM, first compound 10 µM
[13] = second compound 1 µM, first compound 0.0316 µM
[14] = second compound 1 µM, first compound 0.1 µM
[15] = second compound 1 µM, first compound 0.316 µM
[16] = second compound 1 µM, first compound 1 µM
[17] = second compound 1 µM, first compound 3.16 µM
[18] = second compound 1 µM, first compound 10 µM
[19] = second compound 3.16 µM, first compound 0.0316 µM
[20] = second compound 3.16 µM, first compound 0.1 µM
[21] = second compound 3.16 µM, first compound 0.316 µM
[22] = second compound 3.16 µM, first compound 1 µM
[23] = second compound 3.16 µM, first compound 3.16 µM
[24] = second compound 3.16 µM, first compound 10 µM
[25] = second compound 10 µM, first compound 0.0316 µM
[26] = second compound 10 µM, first compound 0.1 µM
[27] = second compound 10 µM, first compound 0.316 µM
[28] = second compound 10 µM, first compound 1 µM
[29] = second compound 10 µM, first compound 3.16 µM
[30] = second compound 10 µM, first compound 10 µM
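Also: spheroids exposed to compounds for seven days before readout.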
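For viability, T/C in this document: 100% = DMSO vehicle control luminescence of the spheroids.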

| SMILES | pIC50 (second compound 0.1 µM) | pIC50 (second compound 0.316 µM) | pIC50 (second compound 1 µM) | pIC50 (second compound 3.16 µM) | pIC50 (second compound 10 µM) | viability, T/C [1] | viability, T/C [2] | viability, T/C [3] | viability, T/C [4] | viability, T/C [5] | viability, T/C [6] | viability, T/C [7] | viability, T/C [8] | viability, T/C [9] | viability, T/C [13] | viability, T/C [14] | viability, T/C [19] | viability, T/C [20] | viability, T/C [25] | viability, T/C [26] | other results |
| --- | --- | --- | --- | --- | --- | --- | --- | --- | --- | --- | --- | --- | --- | --- | --- | --- | --- | --- | --- | --- | --- |
| COc1cc(Nc2ncc3c(n2)-c2ccc(Cl)cc2C(c2c(F)cccc2OC)=NC3)ccc1C(=O)O + CNCc1ccccc1-c1csc(C(C)Nc2nc(C)nc3cc(OC)c(OC)cc23)c1 | 7.08 | 7.08 | 7.06 | > 7.50 | > 7.50 | 80% | 40.1% | 29.3% | 26.2% | 18.5% | 9.63% | 77.9% | 39.5% | 31.1% | 82% | 39.5% | 49.5% | 22.9% | 0.15% | 0.13% | viability, T/C [10]: 27%; viability, T/C [11]: 17.7%; viability, T/C [12]: 9.95%; viability, T/C [15]: 32.8%; viability, T/C [16]: 28.6%; viability, T/C [17]: 21.6%; viability, T/C [18]: 9.92%; viability, T/C [21]: 20.6%; viability, T/C [22]: 12.5%; viability, T/C [23]: 6.88%; viability, T/C [24]: 4.66%; viability, T/C [27]: 0.12%; viability, T/C [28]: 0.1%; viability, T/C [29]: 0.11%; viability, T/C [30]: 0.14% |
| O=C(c1cc(Cc2n[nH]c(=O)c3ccccc23)ccc1F)N1CCN(C(=O)C2CC2)CC1 + CNCc1ccccc1-c1csc(C(C)Nc2nc(C)nc3cc(OC)c(OC)cc23)c1 | < 5.00 | < 5.00 | < 5.00 | < 5.00 | > 7.50 | 101% | 109% | 104% | 108% | 113% | 105% | 107% | 108% | 107% | 116% | 109% | 79.6% | 97.1% | 0.19% | 0.29% | viability, T/C [10]: 109%; viability, T/C [11]: 104%; viability, T/C [12]: 105%; viability, T/C [15]: 103%; viability, T/C [16]: 110%; viability, T/C [17]: 105%; viability, T/C [18]: 103%; viability, T/C [21]: 82.4%; viability, T/C [22]: 59.3%; viability, T/C [23]: 82.3%; viability, T/C [24]: 71.6%; viability, T/C [27]: 0.18%; viability, T/C [28]: 0.17%; viability, T/C [29]: 0.17%; viability, T/C [30]: 0.22% |
| Cn1ncnc1[C@H]1c2n[nH]c(=O)c3cc(F)cc(c23)N[C@@H]1c1ccc(F)cc1 + CC1OCC2(CCN(c3cnc(Sc4ccnc(N)c4Cl)c(N)n3)CC2)C1N | < 7.00 | < 7.00 | < 7.00 | < 7.00 | < 7.00 | 101% | 98.9% | – | – | – | – | 78.3% | 90.6% | – | 83.9% | 80.9% | 76.9% | 74.1% | 67.1% | 57.2% | viability, T/C (second compound 0.1 µM, first compound 0.000316 µM): 98%; viability, T/C (second compound 0.1 µM, first compound 0.001 µM): 102%; viability, T/C (second compound 0.1 µM, first compound 0.00316 µM): 100%; viability, T/C (second compound 0.1 µM, first compound 0.01 µM): 98%; viability, T/C (second compound 0.316 µM, first compound 0.000316 µM): 89.5%; viability, T/C (second compound 0.316 µM, first compound 0.001 µM): 93.8%; viability, T/C (second compound 0.316 µM, first compound 0.00316 µM): 79%; viability, T/C (second compound 0.316 µM, first compound 0.01 µM): 78.8%; viability, T/C (second compound 1 µM, first compound 0.000316 µM): 82.4%; viability, T/C (second compound 1 µM, first compound 0.001 µM): 85.2%; viability, T/C (second compound 1 µM, first compound 0.00316 µM): 75.1%; viability, T/C (second compound 1 µM, first compound 0.01 µM): 83.6%; viability, T/C (second compound 3.16 µM, first compound 0.000316 µM): 75.1%; viability, T/C (second compound 3.16 µM, first compound 0.001 µM): 77.4%; viability, T/C (second compound 3.16 µM, first compound 0.00316 µM): 70.5%; viability, T/C (second compound 3.16 µM, first compound 0.01 µM): 74.5%; viability, T/C (second compound 10 µM, first compound 0.000316 µM): 68.5%; viability, T/C (second compound 10 µM, first compound 0.001 µM): 67.7%; viability, T/C (second compound 10 µM, first compound 0.00316 µM): 63.7%; viability, T/C (second compound 10 µM, first compound 0.01 µM): 57.1% |
| Cn1nccc1Nc1nccc(-c2cc3c(s2)C(C)(C)N(CCN2CCOCC2)C3=O)n1 + C=CC(=O)N1CCN(c2nc(=O)n(-c3c(C)ccnc3C(C)C)c3nc(-c4c(O)cccc4F)c(F)cc23)C(C)C1 | 5.56 | 5.43 | 5.59 | 5.72 | 5.51 | 87.5% | 94.5% | 94.5% | 96.8% | 44.1% | 4.13% | 102% | 92.2% | 102% | 95.5% | 91.2% | 73.7% | 82.7% | 97.1% | 97.1% | viability, T/C [10]: 88%; viability, T/C [11]: 58.2%; viability, T/C [12]: 4.04%; viability, T/C [15]: 91.9%; viability, T/C [16]: 79.5%; viability, T/C [17]: 43.5%; viability, T/C [18]: 5.08%; viability, T/C [21]: 78.6%; viability, T/C [22]: 77.6%; viability, T/C [23]: 28.6%; viability, T/C [24]: 3.74%; viability, T/C [27]: 79.7%; viability, T/C [28]: 74.9%; viability, T/C [29]: 51.5%; viability, T/C [30]: 4.35% |
| O=C(c1cc(Cc2n[nH]c(=O)c3ccccc23)ccc1F)N1CCN(C(=O)C2CC2)CC1 + COc1cc2nc(C)nc(NC(C)c3cc(N)cc(C(F)(F)F)c3)c2cc1OC1CCOC1 | < 5.00 | < 5.00 | < 5.00 | < 5.00 | < 5.00 | 111% | 94.5% | 98.5% | 91.8% | 101% | 97.2% | 94.5% | 103% | 95.1% | 101% | 108% | 94.9% | 89.8% | 94.9% | 90% | viability, T/C [10]: 96.1%; viability, T/C [11]: 96.4%; viability, T/C [12]: 104%; viability, T/C [15]: 101%; viability, T/C [16]: 101%; viability, T/C [17]: 98.1%; viability, T/C [18]: 98.2%; viability, T/C [21]: 89.5%; viability, T/C [22]: 95.2%; viability, T/C [23]: 90.4%; viability, T/C [24]: 87.3%; viability, T/C [27]: 91%; viability, T/C [28]: 82.7%; viability, T/C [29]: 76.2%; viability, T/C [30]: 78% |
| COc1cc2nccc(Oc3ccc(NC(=O)C4(C(=O)Nc5ccc(F)cc5)CC4)cc3)c2cc1OC + COc1cc2nc(C)nc(NC(C)c3cc(N)cc(C(F)(F)F)c3)c2cc1OC1CCOC1 | < 5.00 | < 5.00 | < 5.00 | < 5.00 | 5.57 | 101% | 109% | 114% | 99% | 58% | 96.4% | 85.9% | 108% | 122% | 103% | 106% | 103% | 104% | 64.5% | 103% | viability, T/C [10]: 90%; viability, T/C [11]: 66.2%; viability, T/C [12]: 98.8%; viability, T/C [15]: 104%; viability, T/C [16]: 90%; viability, T/C [17]: 42.1%; viability, T/C [18]: 84.4%; viability, T/C [21]: 87.7%; viability, T/C [22]: 80.6%; viability, T/C [23]: 20.9%; viability, T/C [24]: 92.7%; viability, T/C [27]: 90%; viability, T/C [28]: 67.2%; viability, T/C [29]: 4%; viability, T/C [30]: 90.1% |
